In ChEMBL document CHEMBL3608246, “Novel benzidine and diaminofluorene prolinamide derivatives as potent hepatitis C virus NS5A inhibitors” (Eur J Med Chem, 2015):

Key:
Hepatitis C virus [1] = test: Antiviral activity against HCV genotype 1b NK/R2AN infected in human Huh7.5.1 cells assessed as reduction in virus replication by luciferase reporter gene assay; type: functional, organism-based, Hepacivirus hominis, subtype 1b NK/R2AN, Huh-7
[2] = Cytotoxicity against human Huh7.5.1 cells; type: cell-based, Huh-7
Hepatitis C virus [3] = test: Antiviral activity against HCV genotype 2a JFH5a infected in human Huh7.5.1 cells transfected with JFH5a-Rluc-ad34 assessed as reduction in virus proliferation by luciferase reporter gene assay; type: functional, cell-based, Hepacivirus hominis, Huh-7
[4] = Hepatitis C virus, subtype 1b NK/R2AN, Huh-7
[5] = Hepatitis C virus, genotype 2a JFH5a, Huh-7

Structure (SMILES) | EC50 (Hepatitis C virus [1]; [4]) | CC50 [2] | EC50 (Hepatitis C virus [3]; [5]) | EC50 (Hepatitis C virus [1]; huh-7) | EC50 (Hepatitis C virus [3]; huh-7)
COC(=O)N[C@@H](C(=O)N1CCC[C@H]1C(=O)Nc1ccc(-c2ccc(NC(=O)[C@@H]3CCCN3C(=O)[C@H](NC(=O)OC)c3ccccc3)cc2Br)c(Br)c1)c1ccccc1 | 0.007 nM | > 25000 nM | 0.01 nM |  | 
COC(=O)N[C@@H](C(=O)N1CCCC[C@H]1C(=O)Nc1ccc(-c2ccc(NC(=O)[C@@H]3CCCCN3C(=O)[C@H](NC(=O)OC)c3ccccc3)cc2)cc1)c1ccccc1 | 2.1 nM | > 25000 nM | 180 nM |  | 
COC(=O)N[C@@H](C(=O)N1CSC[C@H]1C(=O)Nc1ccc(-c2ccc(NC(=O)[C@@H]3CSCN3C(=O)[C@H](NC(=O)OC)c3ccccc3)cc2)cc1)c1ccccc1 | 0.027 nM | > 25000 nM | 15.5 nM |  | 
COC(=O)N[C@@H](C(=O)N1CCC[C@H]1C(=O)Nc1ccc(-c2ccc(NC(=O)[C@@H]3CCCN3C(=O)[C@H](NC(=O)OC)c3ccccc3)cc2C(F)(F)F)c(C(F)(F)F)c1)c1ccccc1 (stereo in doubt; form 2) |  | > 25000 nM |  | 27.9 nM | 332 nM
COC(=O)N[C@@H](C(=O)N1CC(=O)C[C@H]1C(=O)Nc1ccc(-c2ccc(NC(=O)[C@@H]3CC(=O)CN3C(=O)[C@H](NC(=O)OC)c3ccccc3)cc2)cc1)c1ccccc1 | 0.044 nM | > 25000 nM | 0.26 nM |  | 
COC(=O)N[C@@H](C(=O)N1CCC[C@@]1(C)C(=O)Nc1ccc(-c2ccc(NC(=O)[C@]3(C)CCCN3C(=O)[C@H](NC(=O)OC)c3ccccc3)cc2)cc1)c1ccccc1 | 2.2 nM | > 25000 nM | 3.3 nM |  | 
COC(=O)N[C@@H](C(=O)N1CCC[C@H]1C(=O)Nc1ccc2c(c1)Cc1cc(NC(=O)[C@@H]3CCCN3C(=O)[C@H](NC(=O)OC)c3ccccc3)ccc1-2)c1ccccc1 | 0.009 nM | > 25000 nM | 5.6 nM |  | 
COC(=O)N[C@@H](C(=O)N1CCC[C@H]1C(=O)Nc1ccc(-c2ccc(NC(=O)[C@@H]3CCCN3C(=O)[C@H](NC(=O)OC)c3ccccc3)cc2C(F)(F)F)c(C(F)(F)F)c1)c1ccccc1 (stereo in doubt; form 3) |  |  |  | 2.4 nM | 24.6 nM
COC(=O)N[C@@H](C(=O)N1CCC[C@@H]1C(=O)Nc1ccc(-c2ccc(NC(=O)[C@H]3CCCN3C(=O)[C@H](NC(=O)OC)c3ccccc3)cc2)cc1)c1ccccc1 | 83 nM | > 25000 nM | 1770 nM |  | 
COC(=O)N[C@@H](C(=O)N1CCC[C@H]1C(=O)Nc1ccc(-c2ccc(NC(=O)[C@@H]3CCCN3C(=O)[C@H](NC(=O)OC)c3ccccc3)c(C)c2)cc1C)c1ccccc1 | 7.4 nM | > 25000 nM | 193 nM |  | 
COC(=O)N[C@@H](C(=O)N1CCC[C@H]1C(=O)Nc1ccc(-c2ccc(NC(=O)[C@@H]3CCCN3C(=O)[C@H](NC(=O)OC)c3ccccc3)cc2)cc1)c1ccccc1 |  | > 25000 nM |  |  | 
COC(=O)N[C@@H](C(=O)N1CCCC[C@@H]1C(=O)Nc1ccc(-c2ccc(NC(=O)[C@H]3CCCCN3C(=O)[C@H](NC(=O)OC)c3ccccc3)cc2)cc1)c1ccccc1 | 370 nM | > 25000 nM | 419 nM |  | 
COC(=O)N[C@@H](C(=O)N1CCC[C@H]1C(=O)Nc1ccc2c(c1)C(=O)c1cc(NC(=O)[C@@H]3CCCN3C(=O)[C@H](NC(=O)OC)c3ccccc3)ccc1-2)c1ccccc1 | 0.004 nM | > 25000 nM | 4.3 nM |  | 
COC(=O)N[C@@H](C(=O)N1CCC[C@H]1C(=O)Nc1ccc(-c2ccc(NC(=O)[C@@H]3CCCN3C(=O)[C@H](NC(=O)OC)c3ccccc3)cc2C)c(C)c1)c1ccccc1 | 0.035 nM | > 25000 nM | 0.32 nM |  | 
